Results published in US5854050A, “Enzyme with protease activity” (Novo Nordisk A/S, priority 1993, dated 1998).

How the values were obtained:
[1] = tested on: Ground defatted feed quality soy; test: Two-step hydrolysis of feed soy (°Brix, osmolality, DH); type: biochemical
Procedure: Ground defatted feed quality soy was mixed with deionised water under the conditions described below. The hydrolysis was carried out in two steps in order to simulate the pH conditions in the stomach and the small intestine.
70 g ground defatted soy
Time 1st step 180 minutes
Enzymes 1st step I) Pepsin 1.92 g
II) I + Bio-Feed Pro 3.0 L
2nd step I) Pancreatin 6 g
The enzymes were added at start 0 minutes. During the hydrolysis ° Brix and osmolality were measured to follow the reaction course. According to Adler-Nissen (1986) the osmolality values can be used for calculation of the Degree of Hydrolysis (DH) by the following equation: [formula] Where Δ is the increase in osmolality mOSM, S % is protein concentration, ω is the calibration factor for the osmometer, htot is the total number of peptide bonds in the protein substrate (meqv/g protein), and fosm is the factor for converting % to g/kg H2 O. [formula]

Hen Lysozyme = test: Cleaning of contact lenses: removal of denatured 14C-lysozyme in 3% H2O2, pH 3.5; type: biochemical; conditions: 3% H2O2, pH 3.5, four hours, 25° C.; FIG. 7
Description: The experimental protocol was as follows:
Materials: Hen Lysozyme, L-6878 from Sigma "Rythmic" contact lens' from Essilor (Type II lens, high-water, nonionic) Protease I produced as described above Protease II produced as described above Porcine pepsin, P-6887 from Sigma Subtilisin carlsberg, Clear-Lens Pro® (Novo Nordisk A/S).
Standard buffer: 0.05M Na2 HPO4, 0.9% NaCl pH 7.5
Scintillation liquid, Optiphase "HiSafe III"
Hen lysozyme from Sigma was labelled with ^14 C through reductive methylation and purified.
A solution was made containing 0.05M Na2 HPO4, 0.9% NaCl and 0.2 mg/ml lysozyme pH 7.5. An amount of ^14 C-labelled lysozyme was added so the CPM (Counts Per Minute) is approximately 200.000. 1.0 ml of the solution was transferred to a scintillation glass. The contact lens was added and the glass placed in a water-bath at 85° C. for 30 minutes.
The contact lens was then rinsed in 3×3 ml reagent buffer. It was quartered with a scalpel. Each quarter was transferred to a new scintillation glass containing 3 ml of the reagent buffer. […]
The reaction took place over four hours at 25° C. […] 12 ml scintillation liquid was added and CPM was measured in a Packard 2500 TR liquid scintillation counter. […]
The relative amount of lysozyme removed from the lens during the combined disinfection/cleaning was calculated from the mass balance of each quarter lens. […]

[2] = STEP II (pH 6.5, with Pancreatin), 180 min

Molecule: Pepsin
- mOSM ([1]; STEP I (pH 4.0, 40° C.), 0 min): 347 mOSM
- mOSM INCREASE ([1]; STEP I (pH 4.0, 40° C.), 0 min): 0 mOSM
- °BRIX ([1]; STEP I (pH 4.0, 40° C.), 0 min): 5.09 °BRIX
- % DH (Degree of Hydrolysis) ([1]; STEP I (pH 4.0, 40° C.), 0 min, calculated from osmolality): 0%
- % DH (Degree of Hydrolysis) ([1]; STEP I, 5 min): 2.86%
- mOSM ([1]; STEP I, 5 min): 362 mOSM
- mOSM INCREASE ([1]; STEP I, 5 min): 15 mOSM
- °BRIX ([1]; STEP I, 5 min): 6.135 °BRIX
- % DH (Degree of Hydrolysis) ([1]; STEP I, 10 min): 2.86%
- mOSM ([1]; STEP I, 10 min): 362 mOSM
- mOSM INCREASE ([1]; STEP I, 10 min): 15 mOSM
- °BRIX ([1]; STEP I, 10 min): 6.505 °BRIX
- % DH (Degree of Hydrolysis) ([1]; STEP I, 15 min): 2.57%
- mOSM ([1]; STEP I, 15 min): 360.5 mOSM
- mOSM INCREASE ([1]; STEP I, 15 min): 13.5 mOSM
- °BRIX ([1]; STEP I, 15 min): 6.625 °BRIX
- % DH (Degree of Hydrolysis) ([1]; STEP I, 30 min): 3.14%
- mOSM ([1]; STEP I, 30 min): 363.5 mOSM
- mOSM INCREASE ([1]; STEP I, 30 min): 16.5 mOSM
- °BRIX ([1]; STEP I, 30 min): 6.9275 °BRIX
- % DH (Degree of Hydrolysis) ([1]; STEP I, 45 min): 3.62%
- mOSM ([1]; STEP I, 45 min): 366 mOSM
- mOSM INCREASE ([1]; STEP I, 45 min): 19 mOSM
- °BRIX ([1]; STEP I, 45 min): 7.345 °BRIX
- % DH (Degree of Hydrolysis) ([1]; STEP I, 60 min): 4.00%
- mOSM ([1]; STEP I, 60 min): 368 mOSM
- mOSM INCREASE ([1]; STEP I, 60 min): 21 mOSM
- °BRIX ([1]; STEP I, 60 min): 7.745 °BRIX
- % DH (Degree of Hydrolysis) ([1]; STEP I, 90 min): 4.47%
- mOSM ([1]; STEP I, 90 min): 370.5 mOSM
- mOSM INCREASE ([1]; STEP I, 90 min): 23.5 mOSM
- °BRIX ([1]; STEP I, 90 min): 8.175 °BRIX
- % DH (Degree of Hydrolysis) ([1]; STEP I, 120 min): 4.95%
- mOSM ([1]; STEP I, 120 min): 373 mOSM
- mOSM INCREASE ([1]; STEP I, 120 min): 26 mOSM
- °BRIX ([1]; STEP I, 120 min): 8.695 °BRIX
- % DH (Degree of Hydrolysis) ([1]; STEP I, 180 min): 6.57%
- mOSM ([1]; STEP I, 180 min): 381.5 mOSM
- mOSM INCREASE ([1]; STEP I, 180 min): 34.5 mOSM
- °BRIX ([1]; STEP I, 180 min): 9.195 °BRIX
- mOSM [1, 2]: 468 mOSM
- mOSM INCREASE [1, 2]: 0 mOSM
- °BRIX [1, 2]: 12.965 °BRIX
- mOSM ([1]; STEP II, 185 min): 996 mOSM
- mOSM INCREASE ([1]; STEP II, 185 min): 528 mOSM
- °BRIX ([1]; STEP II, 185 min): 15.135 °BRIX
- mOSM ([1]; STEP II, 190 min): 1009 mOSM
- mOSM INCREASE ([1]; STEP II, 190 min): 541 mOSM
- °BRIX ([1]; STEP II, 190 min): 15.4025 °BRIX
- mOSM ([1]; STEP II, 195 min): 1015.5 mOSM
- mOSM INCREASE ([1]; STEP II, 195 min): 547.5 mOSM
- °BRIX ([1]; STEP II, 195 min): 15.637 °BRIX
- mOSM ([1]; STEP II, 210 min): 1037.5 mOSM
- mOSM INCREASE ([1]; STEP II, 210 min): 569.5 mOSM
- °BRIX ([1]; STEP II, 210 min): 16.135 °BRIX
- mOSM ([1]; STEP II, 225 min): 1054.5 mOSM
- mOSM INCREASE ([1]; STEP II, 225 min): 586.5 mOSM
- °BRIX ([1]; STEP II, 225 min): 16.415 °BRIX
- mOSM ([1]; STEP II, 240 min): 1068.5 mOSM
- mOSM INCREASE ([1]; STEP II, 240 min): 600.5 mOSM
- °BRIX ([1]; STEP II, 240 min): 16.705 °BRIX
- mOSM ([1]; STEP II, 270 min): 1087.5 mOSM
- mOSM INCREASE ([1]; STEP II, 270 min): 619.5 mOSM
- °BRIX ([1]; STEP II, 270 min): 17.075 °BRIX
- mOSM ([1]; STEP II, 300 min): 1111 mOSM
- mOSM INCREASE ([1]; STEP II, 300 min): 643 mOSM
- °BRIX ([1]; STEP II, 300 min): 17.437 °BRIX
- mOSM ([1]; STEP II, 360 min): 1148 mOSM
- mOSM INCREASE ([1]; STEP II, 360 min): 680 mOSM
- °BRIX ([1]; STEP II, 360 min): 18.075 °BRIX

B1: Subtilisin carlsberg (protein, UniProt P00780 106-379, looked up)
Subtilisin Carlsberg: AQTVPYGIPLIKADKVQAQGFKGANVKVAVLDTGIQASHPDLNVVGGASFVAGEAYNTDGNGHGTHVAGTVAALDNTTGVLGVAPSVSLYAVKVLNSSGSGSYSGIVSGIEWATTNGMDVINMSLGGASGSTAMKQAVDNAYAKGVVVVAAAGNSGSSGNTNTIGYPAKYDSVIAVGAVDSNSNRASFSSVGAELEVMAPGAGVYSTYPTNTYATLNGTSMASPHVAGAAALILSKHPNLSASQVRNRLSSTATYLGSSFYYGKGLINVEAAAQ
notes: Subtilisin carlsberg, Clear-Lens Pro® (Novo Nordisk A/S), presently used serin protease for contact lens cleaning
- performance in contact lens cleaning (lysozyme removed) (Hen Lysozyme): poor performance
